Measured values published in ChEMBL document CHEMBL3751718, “Synthesis and biological evaluation of lipid-like 5-(2-hydroxyethyl)-4-methyl-1,3-thiazole derivatives as potential anticancer and antimicrobial agents” (Medchemcomm, 2015).
Converted amounts (≈) assume the structure as drawn. The source made the active and inactive calls. The calls are words filed in the database; no cut-off is given here.

Key:
MG-22A [1] = test: Induction of nitric oxide production in mouse MG-22A cells by Griess assay; format: functional; design: concentration or dose not given beside the values
[2] = Cytotoxicity against mouse NIH/3T3 cells assessed as cell viability at 6.25 to 50 ug/ml by neutral red-based assay; details: nih3t3
Staphylococcus aureus [3] = test: Antibacterial activity against Staphylococcus aureus MSCL 334 at 5 mg/ml after 24 hrs by agar dish diffusion method; format: functional; details: MSCL 334, 24 h, read-out: DIZ
Bacillus cereus [4] = test: Antibacterial activity against Bacillus cereus MSCL 330 at 5 mg/ml after 24 hrs by agar dish diffusion method; format: functional; details: MSCL 330, 24 h, read-out: DIZ
Escherichia coli [5] = test: Antibacterial activity against Escherichia coli MSCL 332 at 5 mg/ml after 24 hrs by agar dish diffusion method; format: functional; details: for zone of inhibition at 5000 µg/mL: MSCL 332, 24 h, read-out: DIZ
Pseudomonas aeruginosa [6] = test: Antibacterial activity against Pseudomonas aeruginosa MSCL 331 at 5 mg/ml after 24 hrs by agar dish diffusion method; format: functional; details: for zone of inhibition at 5000 µg/mL: MSCL 331, 24 h, read-out: DIZ
Proteus mirabilis [7] = test: Antibacterial activity against Proteus mirabilis MSCL 590 at 5 mg/ml after 24 hrs by agar dish diffusion method; format: functional; details: for zone of inhibition at 5000 µg/mL: MSCL 590, 24 h, read-out: DIZ
Candida albicans [8] = test: Antifungal activity against Candida albicans MSCL 378 at 5 mg/ml after 48 hrs by agar dish diffusion method; format: functional; details: MSCL 378, 48 h, read-out: DIZ
Aspergillus niger [9] = test: Antifungal activity against Aspergillus niger MSCL 324 at 5 mg/ml after 48 hrs by agar dish diffusion method; format: functional; details: for zone of inhibition at 5000 µg/mL: MSCL 324, 48 h, read-out: DIZ
Staphylococcus aureus [10] = test: Antibacterial activity against Staphylococcus aureus MSCL 334 at 10 mg/ml after 24 hrs by agar dish diffusion method; format: functional; details: MSCL 334, 24 h, read-out: DIZ
Bacillus cereus [11] = test: Antibacterial activity against Bacillus cereus MSCL 330 at 10 mg/ml after 24 hrs by agar dish diffusion method; format: functional; details: MSCL 330, 24 h, read-out: DIZ
Escherichia coli [12] = test: Antibacterial activity against Escherichia coli MSCL 332 at 10 mg/ml after 24 hrs by agar dish diffusion method; format: functional; details: for zone of inhibition at 10000 µg/mL: MSCL 332, 24 h, read-out: DIZ
Pseudomonas aeruginosa [13] = test: Antibacterial activity against Pseudomonas aeruginosa MSCL 331 at 10 mg/ml after 24 hrs by agar dish diffusion method; format: functional; details: for zone of inhibition at 10000 µg/mL: MSCL 331, 24 h, read-out: DIZ
Proteus mirabilis [14] = test: Antibacterial activity against Proteus mirabilis MSCL 590 at 10 mg/ml after 24 hrs by agar dish diffusion method; format: functional; details: for zone of inhibition at 10000 µg/mL: MSCL 590, 24 h, read-out: DIZ
Candida albicans [15] = test: Antifungal activity against Candida albicans MSCL 378 at 10 mg/ml after 48 hrs by agar dish diffusion method; format: functional; details: MSCL 378, 48 h, read-out: DIZ
Aspergillus niger [16] = test: Antifungal activity against Aspergillus niger MSCL 324 at 10 mg/ml after 48 hrs by agar dish diffusion method; format: functional; details: MSCL 324, 48 h, read-out: DIZ
Staphylococcus aureus [17] = test: Antibacterial activity against Staphylococcus aureus MSCL 334 after 24 hrs by broth dilution method; format: functional; details: MSCL 334, 24 h
Staphylococcus aureus [18] = test: Bactericidal activity against Staphylococcus aureus MSCL 334 incubated for 24 hrs followed by colony transfer to agar plates for 24 hrs by colony counting based assay; format: functional; details: MSCL 334, 24 h, read-out: MBC99.9
Bacillus cereus [19] = test: Antibacterial activity against Bacillus cereus MSCL 330 after 24 hrs by broth dilution method; format: functional; details: MSCL 330, 24 h
Bacillus cereus [20] = test: Bactericidal activity against Bacillus cereus MSCL 330 incubated for 24 hrs followed by colony transfer to agar plates for 24 hrs by colony counting based assay; format: functional; details: MSCL 330, 24 h, read-out: MBC99.9
Candida albicans [21] = test: Antifungal activity against Candida albicans MSCL 378 after 24 hrs by broth dilution method; format: functional; details: MSCL 378, 24 h
Candida albicans [22] = test: Fungicidal activity against Candida albicans MSCL 378 incubated for 24 hrs followed by colony transfer to agar plates for 24 hrs by colony counting based assay; format: functional; details: MSCL 378, 24 h, read-out: MFC99.9
Aspergillus niger [23] = test: Antifungal activity against Aspergillus niger MSCL 324 after 24 hrs by broth dilution method; format: functional; details: MSCL 324, 24 h
Aspergillus niger [24] = test: Fungicidal activity against Aspergillus niger MSCL 324 incubated for 24 hrs followed by colony transfer to agar plates for 24 hrs by colony counting based assay; format: functional; details: MSCL 324, 24 h, read-out: MFC99.9
HT-1080 = test: Induction of nitric oxide production in human HT1080 cells by Griess assay; format: functional; design: concentration or dose not given beside the values
[25] = Cytotoxicity against human HT1080 cells assessed as cell viability at 6.25 to 50 ug/ml by crystal violet-based assay; format: functional; details: HT-1080, read-out: LC50 (the source's name)
[26] = Cytotoxicity against human HT1080 cells assessed as cell viability at 6.25 to 50 ug/ml after 72 hrs by MTT assay; format: functional; details: HT-1080, 72 h, read-out: LC50 (the source's name)
MG-22A [27] = test: Cytotoxicity against mouse MG-22A cells assessed as cell viability at 6.25 to 50 ug/ml by crystal violet-based assay; format: functional; details: read-out: LC50 (the source's name)
MG-22A [28] = test: Cytotoxicity against mouse MG-22A cells assessed as cell viability at 6.25 to 50 ug/ml after 72 hrs by MTT assay; format: functional; details: read-out: LC50 (the source's name)
Escherichia coli [29] = test: Antibacterial activity against Escherichia coli MSCL 332 after 24 hrs by broth dilution method; format: functional; details: MSCL 332, 24 h
Escherichia coli [30] = test: Bactericidal activity against Escherichia coli MSCL 332 incubated for 24 hrs followed by colony transfer to agar plates for 24 hrs by colony counting based assay; format: functional; details: MSCL 332, 24 h, read-out: MBC99.9

Row | SMILES | Activity (MG-22A [1]) [%] | LC50 [2] [µM] | zone of inhibition at 5000 µg/mL (Staphylococcus aureus [3]) [mm] | zone of inhibition at 5000 µg/mL (Bacillus cereus [4]) [mm] | zone of inhibition at 5000 µg/mL (Candida albicans [8]) [mm] | zone of inhibition at 5000 µg/mL (Aspergillus niger [9]) [mm] | zone of inhibition at 10000 µg/mL (Staphylococcus aureus [10]) [mm] | zone of inhibition at 10000 µg/mL (Bacillus cereus [11]) [mm] | zone of inhibition at 10000 µg/mL (Candida albicans [15]) [mm] | zone of inhibition at 10000 µg/mL (Aspergillus niger [16]) [mm] | MIC (Staphylococcus aureus [17]) [µg/mL] | MBC (Staphylococcus aureus [18]) [µg/mL] | MIC (Bacillus cereus [19]) [µg/mL] | MBC (Bacillus cereus [20]) [µg/mL] | MIC (Candida albicans [21]) [µg/mL] | Activity (HT-1080) [%] | CC50 [25] [µM] | CC50 [26] [µM] | CC50 (MG-22A [27]) [µM] | CC50 (MG-22A [28]) [µM] | other results
1 | CCCCCCCOCCc1scnc1C | 200 | 224 | 11 | 12 | 13 | 15 | 15 | 12 | 13 | 15 | 16 (≈ 66.3 µM) | 64 (≈ 265 µM) | 64 (≈ 265 µM) | > 256 | 64 (≈ 265 µM) | 200 | 62.2 | 70.5 | 37.3 | 49.7 | diameter of the inhibition zone (DIZ) (Escherichia coli [5]): inactive; diameter of the inhibition zone (DIZ) (Pseudomonas aeruginosa [6]): inactive; diameter of the inhibition zone (DIZ) (Proteus mirabilis [7]): inactive; diameter of the inhibition zone (DIZ) (Escherichia coli [12]): inactive; diameter of the inhibition zone (DIZ) (Pseudomonas aeruginosa [13]): inactive; diameter of the inhibition zone (DIZ) (Proteus mirabilis [14]): inactive; MFC (Candida albicans [22]): 128 µg/mL (≈ 530 µM); MIC (Aspergillus niger [23]): 16 µg/mL (≈ 66.3 µM); MFC (Aspergillus niger [24]): 256 µg/mL (≈ 1060 µM)
2 | CCCCCCCCCCCOCCc1scnc1C | 100 | 47.1 | 10 | 10 | 14 | 9 | 13 | 11 | 15 | 15 |  |  |  |  |  | 100 | 53.8 | 50.5 | 47.1 | 53.8 | zone of inhibition at 5000 µg/mL (Escherichia coli [5]): 9 mm; diameter of the inhibition zone (DIZ) (Pseudomonas aeruginosa [6]): inactive; zone of inhibition at 5000 µg/mL (Proteus mirabilis [7]): 8 mm; zone of inhibition at 10000 µg/mL (Escherichia coli [12]): 10 mm; zone of inhibition at 10000 µg/mL (Pseudomonas aeruginosa [13]): 10 mm; zone of inhibition at 10000 µg/mL (Proteus mirabilis [14]): 10 mm
3 | CCCCCCCCCCOCCc1sc[n+](C)c1C.[I-] | 150 | 37.6 | 25 | 29 | 29 | 12 | 25 | 30 | 33 | 15 | 2 | 4 | 32 | 64 | 16 | 150 | 0.47 | 0.94 | 0.23 | 1.17 | zone of inhibition at 5000 µg/mL (Escherichia coli [5]): 15 mm; zone of inhibition at 5000 µg/mL (Pseudomonas aeruginosa [6]): 9 mm; zone of inhibition at 5000 µg/mL (Proteus mirabilis [7]): 17 mm; zone of inhibition at 10000 µg/mL (Escherichia coli [12]): 20 mm; zone of inhibition at 10000 µg/mL (Pseudomonas aeruginosa [13]): 15 mm; zone of inhibition at 10000 µg/mL (Proteus mirabilis [14]): 20 mm; MIC (Escherichia coli [29]): 32 µg/mL; MBC (Escherichia coli [30]): 32 µg/mL; MFC (Candida albicans [22]): 32 µg/mL; MIC (Aspergillus niger [23]): 16 µg/mL; MFC (Aspergillus niger [24]): 32 µg/mL
4 | CCCCCCCOCCc1sc[n+](C)c1C.[I-] | 100 | 467.3 | 20 | 12 | 13 |  | 21 | 13 | 20 | 11 | 16 | 64 | > 256 | > 256 | 256 | 200 | 15.6 | 15.6 | 20.8 | 18.2 | zone of inhibition at 5000 µg/mL (Escherichia coli [5]): 11 mm; diameter of the inhibition zone (DIZ) (Pseudomonas aeruginosa [6]): inactive; diameter of the inhibition zone (DIZ) (Proteus mirabilis [7]): inactive; diameter of the inhibition zone (DIZ) (Aspergillus niger [9]): inactive; zone of inhibition at 10000 µg/mL (Escherichia coli [12]): 16 mm; diameter of the inhibition zone (DIZ) (Pseudomonas aeruginosa [13]): inactive; diameter of the inhibition zone (DIZ) (Proteus mirabilis [14]): inactive; MIC (Escherichia coli [29]): 256 µg/mL; MBC (Escherichia coli [30]): 256 µg/mL; MFC (Candida albicans [22]): > 256 µg/mL; MIC (Aspergillus niger [23]): > 256 µg/mL; MFC (Aspergillus niger [24]): > 256 µg/mL
5 | CCCCCCCCCC[n+]1csc(CCOCCCCCCC)c1C.[I-] | 350 | 19.6 | 21 | 20 | 20 | 17 | 22 | 21 | 21 | 19 | 1 | 4 | 8 | 32 | 16 | 250 | 3.93 | 3.93 | 0.19 | 1.96 | zone of inhibition at 5000 µg/mL (Escherichia coli [5]): 15 mm; zone of inhibition at 5000 µg/mL (Pseudomonas aeruginosa [6]): 16 mm; zone of inhibition at 5000 µg/mL (Proteus mirabilis [7]): 11 mm; zone of inhibition at 10000 µg/mL (Escherichia coli [12]): 20 mm; zone of inhibition at 10000 µg/mL (Pseudomonas aeruginosa [13]): 20 mm; zone of inhibition at 10000 µg/mL (Proteus mirabilis [14]): 12 mm; MIC (Escherichia coli [29]): 32 µg/mL; MBC (Escherichia coli [30]): 64 µg/mL; MFC (Candida albicans [22]): 16 µg/mL; MIC (Aspergillus niger [23]): 16 µg/mL; MFC (Aspergillus niger [24]): 16 µg/mL
